The record followed here is US8906913B2, “Azabicyclohexanes” (Panacea Biotec Limited, priority 2009, dated 2014).

The test system of one assay is male SWISS albino mice. In words: Forced Swim Test. In kind it is in vivo. The following applies: for inhibition in vivo at 32 mg/kg: Mus musculus, 0.25 h, read-out: % decrease in immobility time (dose 32 mg/kg). The protocol: This test was conducted according to the method of Porsolt et al. (Porsolt, R. D., et al., Behavioural despair in mice: A primary screening test for antidepressants. Arch. in Pharmacodyn. Ther., 229, pp 327-336 (1977)).
A test compound was suspended in deionized water, unless otherwise specified, and this suspension was orally administered to male SWISS albino mice (7 to 9 week old). 15 min later, the mice were placed in a water tank having a water depth of 15 cm and a water temperature of 25±1° C. and immediately thereafter allowed to swim for 6 min. Then, a time during which the mouse was immobile (immobility time) was measured for the last 4 min.

Assay [1] deals with Enterococcus faecalis ATCC 29212 Vancomycin Sensitive. In words: In-vitro antibacterial activity, broth microdilution MIC. In kind it is cell-based. How it is done:
(§1) The in-vitro antibacterial activity of the compounds of the present invention (as described in Table 7) was determined by a broth microdilution following the guidelines prescribed by the Clinical and Laboratory Standards Institute (CLSI). This method is described in the CLSI Document M7-A7, Vol. 26, No. 2, “Methods for Dilution Antimicrobial Susceptibility Test for Bacteria that Grow Aerobically; Approved Standard-Seventh Edition”, which is incorporated herein by reference. Minimum Inhibitory Concentration (MIC) is defined as the minimum concentration of test compound which inhibits the growth of bacteria as visible or seen by the naked eye. This test can also be carried out by agar dilution method.
(§2) The compounds of the present invention were tested against a panel of standard microorganisms obtained from ATCC (American type culture collection). Linezolid was used as comparator in all the tests.
(§3) In the broth microdilution method, the compound was dissolved in dimethylsulfoxide and two fold serial dilutions were carried out in 96 well microtitre plates. The inoculum was prepared by adjusting the turbidity of actively growing broth culture and added to the wells to obtain a final bacterial count of ˜2-5×10^4 CFU/well. The microtitre plates were incubated at 35±2° C. for 16-20 h and then read visually.
On the technique in general: Dilution methods test growth across graded concentrations, often in twofold steps.

The test system of assay [2] is Enterococcus faecium ATCC 700221 VRE (Vancomycin resistant E. faecium). The assay is described as above. It is filed as cell-based. The protocol: as §1, §2, §3
For assay [3], the system named is Staphylococcus aureus ATCC 29213 MSSA (Methicillin sensitive). Described as above. It is filed as cell-based. The protocol: as §1, §2, §3
Assay [4] concerns Staphylococcus aureus ATCC 33591 MRSA (Methicillin resistant). Described as above. In kind it is cell-based. How it is done:
as §1, §2, §3

[5] abbreviates: Table 8, mice, oral, 32 mg/kg, suspended in deionized water, 15 min before test.
Where [6] appears, read: ATCC29212, Table 7, E. faecalis vancomycin sensitive, broth microdilution, 35±2° C., 16-20 h, read-out: MIC ATCC 29212.
[7] abbreviates: Table 7, broth microdilution, 35±2° C., 16-20 h, read-out: MIC ATTC 700221.
[8] abbreviates: Table 7, S. aureus MSSA, broth microdilution, 35±2° C., 16-20 h, read-out: MIC ATCC 29213.
[9] abbreviates: Table 7, S. aureus MRSA, broth microdilution, 35±2° C., 16-20 h, read-out: MIC ATCC 33591.

Converted amounts (≈) assume the structure as drawn. Read-outs that look alike come from different tables or passages of the source. Marks after values point to notes of the source that are not given here.

Turning to `CCN1CC2CC2(c2ccc(N3CCCC3)cc2)C1` (centres unmarked) [drawing 519], the inhibition in vivo at 32 mg/kg with male SWISS albino mice (setting [5]) is 99.9 ± 0.1%.

As to `CCN1CC2CC2(c2ccc(N3CCN(c4ccccc4)CC3)cc2)C1` (centres unmarked), the “% decrease in immobility time (dose 64 mg/kg)” value in the assay with male SWISS albino mice (Table 8, mice, oral, suspended in deionized water, 15 min before test) is given as 65.8 ± 9.9%.

Consider `COCC1C2CNCC21c1ccc(N2CCOCC2)cc1` (centres unmarked), for which the “% decrease in immobility time (dose 64 mg/kg)” value in the assay on male SWISS albino mice (Table 8, mice, oral, vehicle 0.25% CMC) is 60.8 ± 20.9^z %.

With `CCN1CC2CC2(c2ccc(N3CCC(F)CC3)cc2)C1` (centres unmarked), the inhibition in vivo at 32 mg/kg in the assay on male SWISS albino mice (setting [5]) amounted to 62.8 ± 23.4%.

With `CCN1CC2CC2(c2ccc(N3CCOC3=O)cc2)C1` (centres unmarked), the inhibition in vivo at 32 mg/kg in the assay with male SWISS albino mice (po) stood at 99.2 ± 0.8%.

By MIC is commonly meant the lowest concentration that inhibits growth of the organism. `CC(=O)NC[C@H]1CN(c2ccc(C34CC3CN(C(=O)N(C)C)C4)cc2)C(=O)O1` (some centres unmarked): the minimal inhibitory concentration (MIC) in assay [1] (setting [6]) was determined as 0.5 µg/mL (≈ 1.29 µM); in assay [2] (setting [7]), 0.25 µg/mL (≈ 0.647 µM); in assay [3] (setting [8]), 4 µg/mL (≈ 10.4 µM); in assay [4] (setting [9]), 1 µg/mL (≈ 2.59 µM).

With `CC(=O)NC[C@H]1CN(c2ccc(C34CC3CN(C(=O)c3cccnc3)C4)cc2)C(=O)O1` (some centres unmarked), the minimal inhibitory concentration (MIC) in assay [1] (setting [6]) was 2 µg/mL (≈ 4.76 µM); in assay [2] (setting [7]), 2 µg/mL (≈ 4.76 µM); in assay [3] (setting [8]), 2 µg/mL (≈ 4.76 µM); in assay [4] (setting [9]), 1 µg/mL (≈ 2.38 µM).

As to `COC(=O)N1C[C@H]2C[C@@]2(c2ccc(N3C[C@H](CNC(C)=O)OC3=O)cc2)C1`, the MIC is 1 µg/mL (≈ 2.68 µM) in assay [1] (setting [6]), 1 µg/mL (≈ 2.68 µM) in assay [2] (setting [7]), 2 µg/mL (≈ 5.36 µM) in assay [3] (setting [8]) and 1 µg/mL (≈ 2.68 µM) in assay [4] (setting [9]).

With `COC(=O)N1CC2CC2(c2ccc(N3C[C@H](CNC(C)=O)OC3=O)cc2F)C1` (some centres unmarked), the MIC in assay [1] (setting [6]) was found to be 0.5 µg/mL (≈ 1.28 µM); in assay [2] (setting [7]), 0.5 µg/mL (≈ 1.28 µM); in assay [3] (setting [8]), 1 µg/mL (≈ 2.55 µM); in assay [4] (setting [9]), 0.5 µg/mL (≈ 1.28 µM).

Turning to `CCOC(=O)OCC(=O)N1CC2CC2(c2ccc(N3C[C@H](CNC(C)=O)OC3=O)cc2)C1` (some centres unmarked), the minimal inhibitory concentration (MIC) in assay [1] (setting [6]) turned out to be 0.5 µg/mL (≈ 1.12 µM); in assay [2] (setting [7]) it was 0.5 µg/mL (≈ 1.12 µM); in assay [3] (setting [8]), 2 µg/mL (≈ 4.49 µM); in assay [4] (setting [9]) it was 1 µg/mL (≈ 2.24 µM).

`CC(=O)NC[C@H]1CN(c2ccc(C34CC3CN(C(=O)CO)C4)cc2)C(=O)O1` (some centres unmarked): the minimal inhibitory concentration (MIC) in assay [1] (setting [6]), in assay [2] (setting [7]), in assay [3] (setting [8]) and in assay [4] (setting [9]) was 0.5 µg/mL (≈ 1.34 µM) each time.

For `COC(=O)N1C[C@@H]2C[C@]2(c2ccc(N3C[C@H](CNC(C)=O)OC3=O)cc2)C1`, the MIC came to 1 µg/mL (≈ 2.68 µM) in assay [1] (setting [6]), 0.5 µg/mL (≈ 1.34 µM) in assay [2] (setting [7]), 1 µg/mL (≈ 2.68 µM) in assay [3] (setting [8]) and 0.5 µg/mL (≈ 1.34 µM) in assay [4] (setting [9]).

As for `CC(=O)NC[C@H]1CN(c2ccc(C34CC3CN(C(=O)CCc3ccccc3)C4)cc2)C(=O)O1` (some centres unmarked), the MIC in assay [1] (setting [6]) worked out at 1 µg/mL (≈ 2.23 µM); in assay [2] (setting [7]), 0.5 µg/mL (≈ 1.12 µM); in assay [3] (setting [8]), 1 µg/mL (≈ 2.23 µM); in assay [4] (setting [9]) it was 1 µg/mL (≈ 2.23 µM).

On to `COC(=O)N1CC2CC2(c2ccc(N3C[C@H](Cn4ccnn4)OC3=O)cc2)C1` (some centres unmarked), for which the MIC was 2 µg/mL (≈ 5.22 µM) in assay [1] (setting [6]), 1 µg/mL (≈ 2.61 µM) in assay [2] (setting [7]), 1 µg/mL (≈ 2.61 µM) in assay [3] (setting [8]) and 0.5 µg/mL (≈ 1.3 µM) in assay [4] (setting [9]).

For `CC(=O)NC[C@H]1CN(c2ccc(C34CC3CN(c3ccccn3)C4)cc2)C(=O)O1` (some centres unmarked), the minimum inhibitory concentration (MIC) in assay [1] (setting [6]) was found to be 0.5 µg/mL (≈ 1.27 µM); in assay [2] (setting [7]), 1 µg/mL (≈ 2.55 µM); in assay [3] (setting [8]) it was 1 µg/mL (≈ 2.55 µM); in assay [4] (setting [9]), 0.5 µg/mL (≈ 1.27 µM).

For `CC(=O)NC[C@H]1CN(c2ccc(C34CC3CN(C(C)=O)C4)cc2)C(=O)O1` (some centres unmarked) [drawing 533], the minimum inhibitory concentration (MIC) was 2 µg/mL (≈ 5.6 µM) in assay [1] (ATCC29212, Table 9, E. faecalis, read-out: Antimicrobial activity (in vitro MIC) ATCC 29212); 2 µg/mL (≈ 5.6 µM) in assay [2] (Table 9, read-out: Antimicrobial activity (in vitro MIC) ATCC 700221); 2 µg/mL (≈ 5.6 µM) in assay [3] (Table 9, S. aureus MSSA, read-out: Antimicrobial activity (in vitro MIC) ATCC 29213); 1 µg/mL (≈ 2.8 µM) in assay [4] (Table 9, S. aureus MRSA, read-out: Antimicrobial activity (in vitro MIC) ATCC 33591).

Regarding `COC(=O)NC[C@H]1CN(c2ccc(C34CC3CN(C(=O)OC)C4)cc2)C(=O)O1` (some centres unmarked), the MIC in assay [1] (setting [6]), in assay [2] (setting [7]), in assay [3] (setting [8]) and in assay [4] (setting [9]) was 1 µg/mL (≈ 2.57 µM) each time.
